Measurements from publication PMC6017447, “Novel 6- and 7-Substituted Coumarins with Inhibitory Action against Lipoxygenase and Tumor-Associated Carbonic Anhydrase IX” (Molecules : A Journal of Synthetic Chemistry and Natural …, 2018).
Where two headings read alike, the source gives them in different places.

Experiments:
[1] = biological target: T1, soybean lipoxygenase (LOX) (Glycine max, UniProt P08170); test: in vitro inhibition of soybean lipoxygenase, UV absorbance based enzyme assay; format: biochemical; conditions: sodium linoleate 0.1 mM, pH 9; for % LOX Inhibition at 100 Μμ / inhibition at 100 µM: 100 μM compound; for inhibition at 100 µM: read-out: % LOX Inhibition at 100 Μμ
T1 construct: purchased Sigma Chemical, Co. (St. Louis, MO, USA)
T1 sequence (P08170 1-839): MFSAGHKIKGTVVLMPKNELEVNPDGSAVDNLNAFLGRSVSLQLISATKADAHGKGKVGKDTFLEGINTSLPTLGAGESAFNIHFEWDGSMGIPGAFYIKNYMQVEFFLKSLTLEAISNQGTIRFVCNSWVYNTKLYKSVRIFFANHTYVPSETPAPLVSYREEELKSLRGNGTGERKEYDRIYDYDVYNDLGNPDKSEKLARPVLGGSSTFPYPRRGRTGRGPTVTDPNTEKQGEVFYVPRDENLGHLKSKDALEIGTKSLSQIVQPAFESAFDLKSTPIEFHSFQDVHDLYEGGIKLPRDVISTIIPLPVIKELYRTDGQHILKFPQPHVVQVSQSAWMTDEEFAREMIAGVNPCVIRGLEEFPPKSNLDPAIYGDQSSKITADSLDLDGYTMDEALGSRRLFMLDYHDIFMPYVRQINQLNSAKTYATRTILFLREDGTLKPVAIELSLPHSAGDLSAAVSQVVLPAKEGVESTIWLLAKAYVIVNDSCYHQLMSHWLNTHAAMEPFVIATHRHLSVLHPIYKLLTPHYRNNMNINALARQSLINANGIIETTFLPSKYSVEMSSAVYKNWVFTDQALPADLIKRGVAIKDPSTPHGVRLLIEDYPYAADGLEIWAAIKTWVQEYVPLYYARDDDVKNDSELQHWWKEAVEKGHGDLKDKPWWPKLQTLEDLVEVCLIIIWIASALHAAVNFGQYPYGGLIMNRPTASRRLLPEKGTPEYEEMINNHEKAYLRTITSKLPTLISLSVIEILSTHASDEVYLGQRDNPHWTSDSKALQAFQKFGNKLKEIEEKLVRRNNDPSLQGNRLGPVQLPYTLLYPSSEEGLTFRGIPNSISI
Experimental: Most of the LOX inhibitors are antioxidants or free radical scavengers. LOXs contain a non-heme iron per molecule in the enzyme active site as high-spin Fe^2+ in the native state and the high spin Fe^3+ in the activated state.
A DMSO solution of the tested compound was incubated with sodium linoleate (0.1 mM) and 0.2 mL of soybean LOX solution (1/9 × 10^−4 w/v in saline) in buffer pH 9 (tris) and at room temperature.

hCA II = hCA II (Homo sapiens, UniProt P00918); test: stopped flow CO2 hydrase assay, hCA II
Experimental: (§1) An Applied Photophysics (Oxford, UK) stopped-flow instrument has been used for assaying the CA catalysed CO2 hydration activity [36]. […] The uncatalyzed rates were determined in the same manner and subtracted from the total observed rates. Stock solutions of inhibitor (0.1 mM) were prepared in distilled-deionized water and dilutions up to 0.01 nM were done thereafter with distilled-deionized water. […] The inhibition constants were obtained by non-linear least-squares methods using PRISM 3, as reported earlier [42, 43, 44, 45, 46, 47, 48, 49, 50] and represent the mean from at least three different determinations. The four CA isoforms were recombinant proteins obtained as reported earlier in our laboratory [42, 43, 44, 45, 46, 47, 48, 49, 50].

[2] = biological target: T1, soybean lipoxygenase (LOX); parameters: method as in doi:10.1007/s00044-017-1800-6; conditions: 100 μM compound; footnote d; cited from earlier work
hCA IX = hCA IX (Homo sapiens, UniProt Q16790); test: stopped flow CO2 hydrase assay, hCA IX
Experimental: as §1

hCA I = hCA I (Homo sapiens, UniProt P00915); test: stopped flow CO2 hydrase assay, hCA I
Experimental: as §1

hCA IV = hCA IV (Homo sapiens, UniProt P22748); test: stopped flow CO2 hydrase assay, hCA IV
hCA IV, sequence (P22748 19-312): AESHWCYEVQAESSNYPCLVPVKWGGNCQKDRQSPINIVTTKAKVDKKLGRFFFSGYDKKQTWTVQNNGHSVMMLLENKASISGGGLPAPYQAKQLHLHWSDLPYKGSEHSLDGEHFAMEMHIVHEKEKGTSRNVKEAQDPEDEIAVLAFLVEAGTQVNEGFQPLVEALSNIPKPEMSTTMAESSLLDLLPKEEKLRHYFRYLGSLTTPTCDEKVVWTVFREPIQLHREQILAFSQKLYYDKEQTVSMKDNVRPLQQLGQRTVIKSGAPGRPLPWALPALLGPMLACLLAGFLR
Experimental: as §1

hCA I, sequence (P00915 whole entry): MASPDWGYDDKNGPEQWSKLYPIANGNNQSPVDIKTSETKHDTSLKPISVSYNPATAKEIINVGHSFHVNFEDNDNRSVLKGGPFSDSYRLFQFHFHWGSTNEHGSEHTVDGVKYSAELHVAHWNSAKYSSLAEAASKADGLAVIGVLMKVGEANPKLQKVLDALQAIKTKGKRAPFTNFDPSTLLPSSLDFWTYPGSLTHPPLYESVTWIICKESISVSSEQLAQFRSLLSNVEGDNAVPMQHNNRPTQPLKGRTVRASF

| Compound | % LOX Inhibition at 100 Μμ [1] | inhibition at 100 µM [1] | Ki (hCA II) | melting point | % LOX Inhibition at 100 Μμ [2] | Ki (hCA IX) | Ki (hCA I) | Ki (hCA IV) | IC50 [1] |
| --- | --- | --- | --- | --- | --- | --- | --- | --- | --- |
| 2-((2-Oxo-2H-chromen-6-yl)oxy)-N-(pyridin-4-ylmethyl)acetamide [Compound 11b] | 37% | – | – | – | – | – | – | – | – |
| 2-((2-Oxo-2H-chromen-7-yl)oxy)-N-(pyridin-4-ylmethyl)acetamide [Compound 11a] | 77% | – | – | – | – | – | – | – | – |
| O=c1ccc2cc(O)ccc2o1 [Compound 1b, 6-hydroxycoumarin] | – | 40% | – | – | – | – | – | – | – |
| CCOC(=O)COc1ccc2ccc(=O)oc2c1 [Compound 2a, Ethyl 2-((2-oxo-2H-chromen-7-yl)oxy)acetate] | – | – | > 10 µM | 112.9 to 113 °C | 16% | 0.247 µM | > 10 µM | 5.57 µM | – |
| CCOC(=O)COc1ccc2oc(=O)ccc2c1 [Compound 2b, Ethyl 2-((2-oxo-2H-chromen-6-yl)oxy)acetate] | – | – | > 10 µM | 120 to 122 °C | 41% | 2.04 µM | > 10 µM | > 10 µM | – |
| O=C(O)COc1ccc2ccc(=O)oc2c1 [Compound 3a, 2-((2-Oxo-2H-chromen-7-yl)oxy)acetic acid] | – | – | > 10 µM | – | 50% | 0.29 µM | > 10 µM | 8.48 µM | – |
| O=C(O)COc1ccc2oc(=O)ccc2c1 [Compound 3b, 2-((2-Oxo-2H-chromen-6-yl)oxy)acetic acid] | – | – | > 10 µM | – | 50% | 0.195 µM | > 10 µM | > 10 µM | – |
| O=C(COc1ccc2ccc(=O)oc2c1)NCCc1ccccc1 [Compound 4a, 2-((2-Oxo-2H-chromen-7-yl)oxy)-N-phenethylacetamide] | – | 96% | > 10 µM | 178 to 179 °C | – | 0.166 µM | > 10 µM | > 10 µM | 10 µM |
| O=C(COc1ccc2oc(=O)ccc2c1)NCCc1ccccc1 [Compound 4b, 2-((2-Oxo-2H-chromen-6-yl)oxy)-N-phenethylacetamide] | – | 85% | > 10 µM | 150 to 151 °C | – | 0.0305 µM | > 10 µM | > 10 µM | 10 µM |
| O=C(COc1ccc2ccc(=O)oc2c1)NCc1ccccc1 [Compound 5a, N-Benzyl-2-((2-oxo-2H-chromen-7-yl)oxy)acetamide] | – | 45% | > 10 µM | 167 to 168 °C | – | 0.0837 µM | > 10 µM | > 10 µM | – |
| O=C(COc1ccc2oc(=O)ccc2c1)NCc1ccccc1 [Compound 5b, N-Benzyl-2-((2-oxo-2H-chromen-6-yl)oxy)acetamide] | – | 42% | > 10 µM | 161 to 162 °C | – | 0.0302 µM | > 10 µM | > 10 µM | – |
| O=C(COc1ccc2ccc(=O)oc2c1)NCc1ccc(F)cc1 [Compound 6a, N-(4-Fluorobenzyl)-2-((2-oxo-2H-chromen-7-yl)oxy)acetamide] | – | 63% | > 10 µM | 160 to 161 °C | – | 2.54 µM | > 10 µM | > 10 µM | 47 µM |
| O=C(COc1ccc2oc(=O)ccc2c1)NCc1ccc(F)cc1 [Compound 6b, N-(4-Fluorobenzyl)-2-((2-oxo-2H-chromen-6-yl)oxy)acetamide] | – | 26% | > 10 µM | 158 to 159 °C | – | 2.78 µM | > 10 µM | > 10 µM | – |
| O=C(COc1ccc2ccc(=O)oc2c1)Nc1ccccc1 [Compound 7a, 2-((2-Oxo-2H-chromen-7-yl)oxy)-N-phenylacetamide] | – | 50% | > 10 µM | 182 to 183 °C | – | 0.201 µM | > 10 µM | > 10 µM | 100 µM |
| O=C(COc1ccc2oc(=O)ccc2c1)Nc1ccccc1 [Compound 7b, 2-((2-Oxo-2H-chromen-6-yl)oxy)-N-phenylacetamide] | – | 45% | > 10 µM | 182 to 183 °C | – | 0.202 µM | > 10 µM | 2.65 µM | – |
| O=C(COc1ccc2ccc(=O)oc2c1)Nc1ccc(F)cc1 [Compound 8a, N-(4-Fluorophenyl)-2-((2-oxo-2H-chromen-7-yl)oxy)acetamide] | – | 43% | > 10 µM | 208 to 209 °C | – | 0.136 µM | > 10 µM | 0.35 µM | – |
| O=C(COc1ccc2oc(=O)ccc2c1)Nc1ccc(F)cc1 [Compound 8b, N-(4-Fluorophenyl)-2-((2-oxo-2H-chromen-6-yl)oxy)acetamide] | – | 11% | > 10 µM | 206 to 207 °C | – | 0.146 µM | > 10 µM | 0.848 µM | – |
| COC(=O)c1ccccc1NC(=O)COc1ccc2ccc(=O)oc2c1 [Compound 9a, Methyl 2-(2-((2-oxo-2H-chromen-7-yl)oxy)acetamido)benzoate] | – | 33% | > 10 µM | 213 to 214 °C | – | 2.73 µM | > 10 µM | > 10 µM | – |
| COC(=O)c1ccccc1NC(=O)COc1ccc2oc(=O)ccc2c1 [Compound 9b, Methyl 2-(2-((2-oxo-2H-chromen-6-yl)oxy)acetamido)benzoate] | – | 50% | > 10 µM | 213 to 214 °C | – | 2.04 µM | > 10 µM | > 10 µM | 100 µM |
| O=C(COc1ccc2ccc(=O)oc2c1)NCCc1ccccn1 [Compound 10a, 2-((2-Oxo-2H-chromen-7-yl)oxy)-N-(2-(pyridin-2-yl)ethyl)acetamide] | – | 79% | > 10 µM | 138 to 139 °C | – | 2.38 µM | > 10 µM | > 10 µM | 15 µM |
| O=C(COc1ccc2oc(=O)ccc2c1)NCCc1ccccn1 [Compound 10b, 2-((2-Oxo-2H-chromen-6-yl)oxy)-N-(2-(pyridin-2-yl)ethyl)acetamide] | – | 40% | > 10 µM | 141 to 142 °C | – | 2.15 µM | > 10 µM | > 10 µM | – |
| O=C(COc1ccc2ccc(=O)oc2c1)NCCN1CCOCC1 [Compound 12a, N-(2-Morpholinoethyl)-2-((2-oxo-2H-chromen-7-yl)oxy)acetamide] | – | 56% | > 10 µM | 148 to 149 °C | – | > 10 µM | > 10 µM | > 10 µM | 42.5 µM |
| O=C(COc1ccc2oc(=O)ccc2c1)NCCN1CCOCC1 [Compound 12b, N-(2-Morpholinoethyl)-2-((2-oxo-2H-chromen-6-yl)oxy)acetamide] | – | 64% | > 10 µM | 149 to 150 °C | – | > 10 µM | > 10 µM | > 10 µM | 16.5 µM |
| O=C(COc1ccc2ccc(=O)oc2c1)NCCN1CCCCC1 [Compound 13a, 2-((2-Oxo-2H-chromen-7-yl)oxy)-N-(2-(piperidin-1-yl)ethyl)acetamide] | – | 50% | > 10 µM | 116 to 117 °C | – | 1.97 µM | > 10 µM | > 10 µM | 100 µM |
| O=C(COc1ccc2oc(=O)ccc2c1)NCCN1CCCCC1 [Compound 13b, 2-((2-Oxo-2H-chromen-6-yl)oxy)-N-(2-(piperidin-1-yl)ethyl)acetamide] | – | 37.6% | > 10 µM | 115 to 116 °C | – | 0.274 µM | > 10 µM | > 10 µM | – |
